Data from patent publication US20210322443A1 (MAPREG, priority 2015, published 2021).

What was measured:
Noradrenergic β2 = Noradrenergic β2 (Homo sapiens, UniProt P07550); test: CNS receptor binding assay; conditions: read-out: % Inhibition of control specific binding
Histaminergic H2 = Histaminergic H2 (Homo sapiens, UniProt P25021); test: CNS receptor binding assay; conditions: read-out: % Inhibition of control specific binding
Serotoninergic 5-HT5A = Serotoninergic 5-HT5A (Homo sapiens, UniProt P47898); test: CNS receptor binding assay; conditions: read-out: % Inhibition of control specific binding
[1] = molecular target: Noradrenergic Transporter (Homo sapiens, UniProt P23975); test: CNS receptor binding assay; conditions: [3H] nisoxetine, Human recombinant (CHO cells), read-out: % Inhibition of control specific binding
Chain of Noradrenergic Transporter (P23975 whole entry): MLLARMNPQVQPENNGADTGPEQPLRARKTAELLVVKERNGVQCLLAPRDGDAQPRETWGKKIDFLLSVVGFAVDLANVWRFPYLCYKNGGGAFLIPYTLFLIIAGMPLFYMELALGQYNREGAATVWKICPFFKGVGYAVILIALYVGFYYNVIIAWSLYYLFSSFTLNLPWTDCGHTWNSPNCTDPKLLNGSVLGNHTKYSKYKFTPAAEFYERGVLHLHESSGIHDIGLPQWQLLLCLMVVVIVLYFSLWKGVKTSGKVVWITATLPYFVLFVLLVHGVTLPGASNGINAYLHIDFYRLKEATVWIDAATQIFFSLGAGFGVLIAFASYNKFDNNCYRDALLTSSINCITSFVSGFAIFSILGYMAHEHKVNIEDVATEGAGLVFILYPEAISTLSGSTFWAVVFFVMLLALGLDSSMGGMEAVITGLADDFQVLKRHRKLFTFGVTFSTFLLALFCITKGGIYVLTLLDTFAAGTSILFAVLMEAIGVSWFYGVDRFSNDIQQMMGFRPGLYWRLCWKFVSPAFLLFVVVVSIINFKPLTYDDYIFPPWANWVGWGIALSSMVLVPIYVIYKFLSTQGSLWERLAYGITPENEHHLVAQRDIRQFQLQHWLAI

Dopaminergic D2S = Dopaminergic D2S (Homo sapiens, UniProt P14416); test: CNS receptor binding assay; conditions: read-out: % Inhibition of control specific binding
Chain of Dopaminergic D2S (P14416 1-414 isoform P14416-2): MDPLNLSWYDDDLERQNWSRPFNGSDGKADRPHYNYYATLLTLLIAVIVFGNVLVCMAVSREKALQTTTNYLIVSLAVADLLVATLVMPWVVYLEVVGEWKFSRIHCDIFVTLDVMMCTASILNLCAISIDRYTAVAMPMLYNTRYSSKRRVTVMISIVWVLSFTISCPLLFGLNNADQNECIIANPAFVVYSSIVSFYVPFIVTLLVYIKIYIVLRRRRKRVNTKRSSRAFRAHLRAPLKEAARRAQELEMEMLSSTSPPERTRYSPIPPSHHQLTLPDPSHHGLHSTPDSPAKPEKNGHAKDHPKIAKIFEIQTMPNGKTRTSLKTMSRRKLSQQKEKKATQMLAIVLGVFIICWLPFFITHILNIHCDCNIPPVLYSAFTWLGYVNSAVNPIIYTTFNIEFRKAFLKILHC

Serotoninergic 5-HT3 = Serotoninergic 5-HT3 (Homo sapiens, UniProt P46098); test: CNS receptor binding assay; conditions: read-out: % Inhibition of control specific binding
[2] = Blood parameters before and after MAP4343 treatment; format: in vivo, Wistar rats; conditions: dependent and non-dependent rats, pre/post treatment, 10 mg/kg sub-cutaneously, FIGS. 4 to 17
Experimental: Blood samples were obtained before and after completion of the treatment with MAP4343 using retro-orbital sampling. Blood, serum and plasma were collected and analyzed using standard procedures to evaluate blood count panel, blood urea nitrogen, cholesterol, creatinine, T3, T4 and protein electrophoresis.
Data were analyzed by appropriate mixed factorial ANOVA, followed Newman Keuls post hoc tests

Oppioid δ2 = Oppioid δ2 (Homo sapiens, UniProt P41143); test: CNS receptor binding assay; conditions: [3H] DADLE, Human recombinant (CHO cells), read-out: % Inhibition of control specific binding
Chain of Oppioid δ2 (P41143 whole entry): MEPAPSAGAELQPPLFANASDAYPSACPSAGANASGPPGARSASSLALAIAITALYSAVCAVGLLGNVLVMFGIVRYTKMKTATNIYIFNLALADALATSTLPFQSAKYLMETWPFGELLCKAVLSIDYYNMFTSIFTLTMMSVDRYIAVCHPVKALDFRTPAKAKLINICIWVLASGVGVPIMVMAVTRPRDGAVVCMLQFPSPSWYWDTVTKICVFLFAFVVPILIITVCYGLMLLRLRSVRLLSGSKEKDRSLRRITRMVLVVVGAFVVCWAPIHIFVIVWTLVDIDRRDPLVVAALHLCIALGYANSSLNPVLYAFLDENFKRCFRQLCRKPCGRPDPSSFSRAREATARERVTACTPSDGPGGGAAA

Serotoninergic 5-HT1A = Serotoninergic 5-HT1A (Homo sapiens, UniProt P08908); test: CNS receptor binding assay; conditions: read-out: % Inhibition of control specific binding
Serotoninergic 5-HT2B = Serotoninergic 5-HT2B (Homo sapiens, UniProt P41595); test: CNS receptor binding assay; conditions: read-out: % Inhibition of control specific binding
Noradrenergic β1 = Noradrenergic β1 (Homo sapiens, UniProt P08588); test: CNS receptor binding assay; conditions: read-out: % Inhibition of control specific binding
Noradrenergic α1 = test: CNS receptor binding assay; conditions: 10 μM; [3H] prazosin; rat cerebral cortex
[3] = molecular target: Muscarinic (Cholinergic) M1 (Homo sapiens, UniProt P11229); test: CNS receptor binding assay; conditions: [3H] pirenzepine, Human recombinant (CHO cells), read-out: % Inhibition of control specific binding
Chain of Muscarinic (Cholinergic) M1 (P11229 whole entry): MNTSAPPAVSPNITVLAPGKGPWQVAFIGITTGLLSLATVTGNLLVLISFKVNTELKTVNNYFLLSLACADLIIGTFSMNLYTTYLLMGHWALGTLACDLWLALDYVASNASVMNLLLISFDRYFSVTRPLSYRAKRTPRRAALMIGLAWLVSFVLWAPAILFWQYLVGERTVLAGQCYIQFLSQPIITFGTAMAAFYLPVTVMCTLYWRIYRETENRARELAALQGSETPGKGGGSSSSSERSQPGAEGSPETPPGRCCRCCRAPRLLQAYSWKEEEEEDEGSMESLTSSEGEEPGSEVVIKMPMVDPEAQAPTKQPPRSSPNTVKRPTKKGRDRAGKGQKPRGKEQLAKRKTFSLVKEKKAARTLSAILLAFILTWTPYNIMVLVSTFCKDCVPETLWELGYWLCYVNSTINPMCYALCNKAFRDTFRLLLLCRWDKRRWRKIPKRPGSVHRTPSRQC

[4] = molecular target: T1, human progesterone receptor(PR) (Homo sapiens, UniProt P06401); test: Progesterone receptor agonist transactivation (MMTV-luciferase) in transfected HEK293T cells; format: cell-based; conditions: 24 hours, increasing amounts, FIG. 1
T1 construct: expressed in transfected cells; host or cells: HEK293T
T1 sequence (P06401 1-933): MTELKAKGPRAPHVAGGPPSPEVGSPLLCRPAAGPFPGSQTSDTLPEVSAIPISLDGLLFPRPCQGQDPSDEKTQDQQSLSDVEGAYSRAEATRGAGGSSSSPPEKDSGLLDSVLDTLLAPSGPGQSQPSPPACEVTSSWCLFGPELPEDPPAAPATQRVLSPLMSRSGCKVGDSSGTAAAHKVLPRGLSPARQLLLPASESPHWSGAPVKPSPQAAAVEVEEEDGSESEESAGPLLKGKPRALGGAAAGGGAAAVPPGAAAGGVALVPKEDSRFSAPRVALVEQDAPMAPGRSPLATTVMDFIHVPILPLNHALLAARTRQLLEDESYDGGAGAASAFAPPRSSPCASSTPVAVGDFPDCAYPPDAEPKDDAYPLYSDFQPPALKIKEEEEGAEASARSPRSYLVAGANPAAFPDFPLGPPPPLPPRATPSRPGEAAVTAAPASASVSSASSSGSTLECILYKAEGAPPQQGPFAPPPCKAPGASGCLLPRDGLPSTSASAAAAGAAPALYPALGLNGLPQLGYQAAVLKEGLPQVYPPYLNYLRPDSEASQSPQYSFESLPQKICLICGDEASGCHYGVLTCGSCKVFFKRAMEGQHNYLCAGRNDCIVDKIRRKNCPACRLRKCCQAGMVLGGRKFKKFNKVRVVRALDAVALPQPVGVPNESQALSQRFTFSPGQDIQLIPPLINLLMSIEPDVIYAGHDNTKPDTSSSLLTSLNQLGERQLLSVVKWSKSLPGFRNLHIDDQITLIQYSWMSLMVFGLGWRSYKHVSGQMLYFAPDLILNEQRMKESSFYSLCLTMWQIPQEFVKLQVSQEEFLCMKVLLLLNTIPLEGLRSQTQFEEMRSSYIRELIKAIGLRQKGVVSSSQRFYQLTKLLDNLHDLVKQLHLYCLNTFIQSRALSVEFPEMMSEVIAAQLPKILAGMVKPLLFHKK
Experimental: The main experimental setting used is the following: HEK293T cells were transiently transfected, using calcium phosphate precipitation technology, with expression vectors pSG5hPR (which permits expression of human progesterone receptor(PR)), pFC31-luc (contains the luciferase gene under the control of the MMTV promoter, which is in turn activated by binding of a progestin to progesterone receptor) and pcbetagal (which permits expression of betagalactosidase), and cultured during 24 hours with increasing amounts of various compositions: • 1. […] Test of progesterone receptor […] activity: transfected cells were cultured with progesterone (1 nM) and increasing amounts of RU486 (a well-known progesterone receptor antagonist) or 3-methoxy-pregnenolone. • With this setting, a compound with progesterone receptor antagonist activity competes with progesterone for the occupation of progesterone receptor and results in a progressive loss of transactivation activity when the amount of this compound is increased compared to progesterone.

[5] = molecular target: purified tubulin and MAP2 (Homo sapiens, UniProt P11137); test: Increase in optical density at 345 nm of purified tubulin and MAP2 (microtubule polymerization); format: biochemical; conditions: 37° C., GTP
Chain of purified tubulin and MAP2 (P11137 whole entry): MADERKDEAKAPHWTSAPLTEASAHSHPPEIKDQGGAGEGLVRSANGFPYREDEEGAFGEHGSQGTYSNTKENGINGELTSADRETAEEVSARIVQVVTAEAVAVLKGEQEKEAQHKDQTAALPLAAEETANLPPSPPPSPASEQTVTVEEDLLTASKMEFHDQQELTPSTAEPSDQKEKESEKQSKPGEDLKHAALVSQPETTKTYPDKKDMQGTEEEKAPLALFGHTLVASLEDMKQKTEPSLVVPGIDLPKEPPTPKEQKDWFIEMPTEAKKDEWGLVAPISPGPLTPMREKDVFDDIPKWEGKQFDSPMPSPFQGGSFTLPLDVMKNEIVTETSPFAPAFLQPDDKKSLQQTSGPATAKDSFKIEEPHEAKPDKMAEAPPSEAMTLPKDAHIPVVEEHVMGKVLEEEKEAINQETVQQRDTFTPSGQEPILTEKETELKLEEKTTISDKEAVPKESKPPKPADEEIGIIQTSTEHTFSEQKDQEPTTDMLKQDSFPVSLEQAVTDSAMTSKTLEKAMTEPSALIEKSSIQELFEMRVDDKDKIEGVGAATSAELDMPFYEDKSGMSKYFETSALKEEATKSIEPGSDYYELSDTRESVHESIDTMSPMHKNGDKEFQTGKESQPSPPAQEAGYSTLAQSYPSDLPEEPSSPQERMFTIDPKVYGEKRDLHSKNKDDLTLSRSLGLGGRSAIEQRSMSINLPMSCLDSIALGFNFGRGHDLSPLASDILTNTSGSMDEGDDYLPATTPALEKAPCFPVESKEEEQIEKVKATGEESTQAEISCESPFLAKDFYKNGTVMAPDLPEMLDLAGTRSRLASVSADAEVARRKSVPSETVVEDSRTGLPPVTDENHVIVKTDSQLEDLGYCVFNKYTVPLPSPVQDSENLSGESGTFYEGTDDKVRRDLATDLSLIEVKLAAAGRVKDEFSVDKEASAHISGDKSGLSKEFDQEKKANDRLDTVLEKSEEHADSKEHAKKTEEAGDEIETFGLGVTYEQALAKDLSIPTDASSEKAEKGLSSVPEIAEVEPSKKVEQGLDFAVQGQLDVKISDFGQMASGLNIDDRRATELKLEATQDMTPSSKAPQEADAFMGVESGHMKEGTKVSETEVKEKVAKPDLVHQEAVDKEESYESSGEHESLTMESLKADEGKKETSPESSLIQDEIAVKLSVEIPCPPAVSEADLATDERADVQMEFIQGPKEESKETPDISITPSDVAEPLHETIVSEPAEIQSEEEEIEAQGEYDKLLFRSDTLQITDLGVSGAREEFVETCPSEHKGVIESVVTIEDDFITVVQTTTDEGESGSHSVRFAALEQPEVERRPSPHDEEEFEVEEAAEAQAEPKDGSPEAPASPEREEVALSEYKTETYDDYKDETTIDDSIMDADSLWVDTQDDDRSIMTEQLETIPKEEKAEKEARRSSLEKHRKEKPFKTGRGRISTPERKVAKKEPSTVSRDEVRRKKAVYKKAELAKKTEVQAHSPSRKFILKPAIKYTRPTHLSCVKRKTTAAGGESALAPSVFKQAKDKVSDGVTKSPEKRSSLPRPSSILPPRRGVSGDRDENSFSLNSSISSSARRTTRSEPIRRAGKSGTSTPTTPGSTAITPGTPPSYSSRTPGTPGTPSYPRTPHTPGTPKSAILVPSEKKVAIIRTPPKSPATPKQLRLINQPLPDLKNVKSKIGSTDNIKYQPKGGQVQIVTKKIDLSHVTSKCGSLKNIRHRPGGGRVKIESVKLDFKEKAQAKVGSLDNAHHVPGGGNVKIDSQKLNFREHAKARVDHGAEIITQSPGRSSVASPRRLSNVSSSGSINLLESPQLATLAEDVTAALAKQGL
Experimental: Activity is measured by the increase in optical density at 345 nm of a mixture of purified tubulin and MAP2, incubated at 37° C. in the presence of GTP.

[6] = molecular target: Muscarinic (Cholinergic) M4 (Homo sapiens, UniProt P08173); test: CNS receptor binding assay; conditions: [3H] 4-DAMP, Human recombinant (CHO cells), read-out: % Inhibition of control specific binding
Chain of Muscarinic (Cholinergic) M4 (P08173 whole entry): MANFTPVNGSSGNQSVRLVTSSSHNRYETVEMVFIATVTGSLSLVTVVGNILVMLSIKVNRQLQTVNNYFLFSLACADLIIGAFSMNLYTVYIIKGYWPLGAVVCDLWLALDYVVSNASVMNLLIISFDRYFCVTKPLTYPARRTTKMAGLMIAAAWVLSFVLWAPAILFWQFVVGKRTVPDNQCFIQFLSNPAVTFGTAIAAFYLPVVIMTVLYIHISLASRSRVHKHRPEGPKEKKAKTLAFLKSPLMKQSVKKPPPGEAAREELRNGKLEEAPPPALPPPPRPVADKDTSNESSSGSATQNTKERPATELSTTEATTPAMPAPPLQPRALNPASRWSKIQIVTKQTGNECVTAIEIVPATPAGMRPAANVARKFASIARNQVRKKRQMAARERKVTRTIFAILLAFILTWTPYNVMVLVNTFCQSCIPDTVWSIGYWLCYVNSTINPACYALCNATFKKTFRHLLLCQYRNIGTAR

GABA (non-selective) = test: CNS receptor binding assay; conditions: 10 μM; [3H] GABA; rat cerebral cortex
NMDA PCP site = test: CNS receptor binding assay; conditions: 10 μM; [3H] TCP; rat cerebral cortex

Chain of Noradrenergic β2 (P07550 whole entry): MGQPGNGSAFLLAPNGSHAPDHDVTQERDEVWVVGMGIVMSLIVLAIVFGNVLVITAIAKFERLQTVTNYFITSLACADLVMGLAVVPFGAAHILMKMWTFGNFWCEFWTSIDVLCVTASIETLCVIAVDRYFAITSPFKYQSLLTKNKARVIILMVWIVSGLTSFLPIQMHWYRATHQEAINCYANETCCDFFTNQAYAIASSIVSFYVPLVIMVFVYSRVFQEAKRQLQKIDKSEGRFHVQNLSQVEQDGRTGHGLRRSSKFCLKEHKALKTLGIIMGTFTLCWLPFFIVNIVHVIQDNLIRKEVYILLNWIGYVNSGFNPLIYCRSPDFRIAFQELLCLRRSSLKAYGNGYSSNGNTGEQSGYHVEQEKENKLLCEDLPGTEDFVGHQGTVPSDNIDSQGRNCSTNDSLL
Chain of Histaminergic H2 (P25021 whole entry): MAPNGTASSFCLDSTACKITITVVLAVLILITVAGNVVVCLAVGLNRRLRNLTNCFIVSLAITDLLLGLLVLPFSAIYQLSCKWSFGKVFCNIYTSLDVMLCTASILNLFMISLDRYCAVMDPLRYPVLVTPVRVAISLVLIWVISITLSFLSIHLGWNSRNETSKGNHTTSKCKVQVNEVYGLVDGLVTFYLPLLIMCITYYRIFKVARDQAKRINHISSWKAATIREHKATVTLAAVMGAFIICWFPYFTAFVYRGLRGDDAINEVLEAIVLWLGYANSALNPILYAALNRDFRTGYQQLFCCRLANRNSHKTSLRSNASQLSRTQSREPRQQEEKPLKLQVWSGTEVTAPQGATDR

Question: With `CO[C@H]1CC[C@@]2(C)C(=CC[C@H]3[C@@H]4CC[C@H](C(C)=O)[C@@]4(C)CC[C@@H]32)C1` [MAP4343, 3β-methoxy-pregna-5-ene-20-one] as the compound, how does the inhibition at 10 µM (Noradrenergic β2) read?
Answer: -4%

Question: What about the inhibition at 10 µM (Histaminergic H2) of the same compound?
Answer: -21%

Question: And the inhibition at 10 µM (Serotoninergic 5-HT5A)?
Answer: -5%

Question: And the inhibition at 10 µM [1]?
Answer: 3%

Question: What about the inhibition at 10 µM (Dopaminergic D2S) of the same compound?
Answer: 6%

Question: And the inhibition at 10 µM (Serotoninergic 5-HT3)?
Answer: 10%

Question: And the “effect on blood parameters (blood count panel, blood urea nitrogen, cholesterol, creatinine, T3, T4, protein electrophoresis)” value [2]?
Answer: no significant effects of dependence or treatment on any of the blood parameters investigated

Question: And the inhibition at 10 µM (Oppioid δ2)?
Answer: -3%

Question: And the inhibition at 10 µM (Serotoninergic 5-HT1A)?
Answer: 2%

Question: And the inhibition at 10 µM (Serotoninergic 5-HT2B)?
Answer: -4%

Question: What about the inhibition at 10 µM (Noradrenergic β1) of the same compound?
Answer: 1%

Question: What about the “% Inhibition of control specific binding” value (Noradrenergic α1) of the same compound?
Answer: 4%

Question: What about the inhibition at 10 µM [3] of the same compound?
Answer: -3%

Question: What about the “progesterone receptor agonist activity (transactivation, luciferase expression)” value [4] of the same compound?
Answer: does not have progesterone receptor agonist activity

Question: And the “Activity (percent of PREG)” value [5]?
Answer: 100% of PREG

Question: What about the inhibition at 10 µM [6] of the same compound?
Answer: 20%

Question: And the “% Inhibition of control specific binding” value (GABA (non-selective))?
Answer: 2%

Question: And the “% Inhibition of control specific binding” value (NMDA PCP site)?
Answer: −10%
